The source made the active and inactive calls.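 The calls were made as follows: active = compounds giving half or more protection of infected cells from virus-caused growth loss, again on retest; inactive = the rest.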
Test system: CEM cells HIV-1 protection, formazan growth assay
Assay: NCI AIDS Antiviral Assay
Conditions: for IC50: measured here: growth of uninfected CEM cells
How it was run: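 Human CEM cells, uninfected and HIV-1-infected, exposed to five drug concentrations; growth measured by soluble formazan assay and scored as percent protection from infection, with protecting compounds retested.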

CC(=O)Oc1ccc(S(=O)(=O)c2ccc(OC(C)=O)cc2)cc1
EC50: > 200 µM
IC50: 9.12 µM

C[C@]12CCC(=O)C=C1CC[C@H]1[C@@H]3CC[C@@]4(OCC4=O)[C@@]3(C)C[C@H](O)[C@@]12F
EC50: > 123 µM
IC50: > 123 µM

CN(N)c1cn[nH]c(=O)c1Cl
EC50: > 200 µM
IC50: > 200 µM

O=S(=O)([N-]c1nc2ccccc2nc1-[n+]1ccccc1)c1ccccc1
EC50: > 100 µM
IC50: > 100 µM

CC1C(O)=C(O)c2ccccc2N1O (stereo unspecified)
EC50: > 490 µM
IC50: 87.1 µM

Cc1ccc2c(c1)C(=O)c1cc(C)cc(C(=O)O)c1-2
EC50: > 200 µM
IC50: > 200 µM

O=C(CCC(=O)C1Cc2ccccc2C1=O)Nc1cccc(C(F)(F)F)c1 (stereo unspecified)
EC50: > 661 µM
IC50: > 661 µM

O=Nc1c(O)cc(Nc2cccnc2)c2ccccc12
EC50: 102 µM
IC50: 182 µM

CCn1c(=O)c2ncnnc2n(CC)c1=O
EC50: > 200 µM
IC50: > 200 µM

O=[N+]([O-])c1ccc(OCc2nnc(CCCCCCCCc3nnc(COc4ccc([N+](=O)[O-])cc4)o3)o2)cc1
EC50: > 200 µM
IC50: > 200 µM

COC(=N)C1(C#N)NC(c2ccsc2)C(C#N)(C#N)NC1c1ccsc1 (stereo unspecified)
EC50: > 200 µM
IC50: 56.2 µM

COc1c2c(c(N)c3ccc(=O)oc13)CCO2
EC50: > 126 µM
IC50: > 126 µM

Cc1[se]c(N)nc1-c1ccccc1
outcome: inactive

CSC1=Nc2ccccc2N=C(N2CCCC2)C1
EC50: 4.47 µM
IC50: > 200 µM

O=C(Cc1csc2[n+]1C(=O)/C(=C/c1ccc(Cl)cc1)S2)Nc1ccccc1
EC50: > 200 µM
IC50: 30.2 µM

O=C1CCCCC1C(O)(C(F)(F)F)C(F)(F)Cl (stereo unspecified)
EC50: > 200 µM
IC50: 85.1 µM

O=S1Nc2c(Cl)cc(Cl)c(Cl)c2S1 (stereo unspecified)
EC50: > 129 µM
IC50: > 129 µM

O=C1C(O)=C(c2ccccc2)S(=O)(=O)C1c1ccccc1 (stereo unspecified)
EC50: > 200 µM
IC50: 79.4 µM

C[C@]12CCC3[C@@H](CC[C@@H]4c5nonc5CC[C@]34C)C1C/C(=N/O)C2=O (stereo partly specified)
EC50: > 105 µM
IC50: 95.5 µM

COc1cc(C)c(C(=O)/C=C/c2cc(OC)c(O)c(OC)c2)cc1O
EC50: > 275 µM
IC50: 12.9 µM

COc1ccc(/C=C2\N=C(SC)N(CN3CCCCC3)C2=O)cc1
EC50: > 200 µM
IC50: > 200 µM

CN(C)C(=S)OC(Cn1cncn1)c1ccc(Cl)cc1Cl (stereo unspecified)
EC50: > 513 µM
IC50: 427 µM

COc1cc(C(C2=C(O)c3ccccc3C(=O)C2=O)C2=C(O)c3ccccc3C(=O)C2=O)cc(OC)c1OC
EC50: > 200 µM
IC50: 72.4 µM

COc1ccc(Nc2nnc(CCCCCCCCc3nnc(Nc4ccc(OC)cc4)o3)o2)cc1
EC50: > 200 µM
IC50: > 200 µM

COC(=O)c1c2c(cc3c1CC1(Cc4cc5c(c(C=O)c4C1)CCC5)C3)CCC2 (stereo unspecified)
EC50: > 200 µM
IC50: 20 µM

CC(=O)OCCn1c([N+](=O)[O-])cnc1/C=[N+](/[O-])CCO
outcome: inactive

C[C@H]1S[C@H](c2c(F)cccc2F)n2c1nc1ccccc12
EC50: > 200 µM
IC50: 33.9 µM

CC(=O)O[C@]1(C)OC(=O)[C@@H](C)N1[N+](=O)[O-]
outcome: inactive

CCN(CC)CCCN1CCc2c([nH]c3ccccc23)C1c1cccnc1 (stereo unspecified)
EC50: > 186 µM
IC50: > 186 µM

CCCCOP(=S)(OCCCC)OCCCC
outcome: inactive

C(=C/c1ccc2nc(-c3ccc(/C=C/C=N/NC4=NCCCN4)cc3)cn2c1)/C=N/NC1=NCCCN1
EC50: > 100 µM
IC50: 16.6 µM

COc1c(OC(C)=O)c(OC(C)=O)cc2c1-c1ccc(OC)c(=O)cc1C(NC(C)=O)CC2 (stereo unspecified)
EC50: > 0.2 µM
IC50: 0.0115 µM

O=C(/C=C/c1cc(O)ccc1O)OCCc1ccccc1
EC50: > 45.7 µM
IC50: 6.17 µM

COC1(c2ccc(C)cc2C)OC(=O)c2c(C)cccc21 (stereo unspecified)
outcome: inactive

O=Nc1ccc(Cl)cc1
outcome: inactive

N#C/C(=C\c1cc(Br)cc(Br)c1O)c1ccc([N+](=O)[O-])cc1
EC50: > 100 µM
IC50: 13.5 µM

COC1/C=C/OC2(C)Oc3c(C)c(O)c4c(O)c(cc(OCC(=O)N5CCOCC5C)c4c3C2=O)NC(=O)/C(C)=C/C=C/C(C)C(O)C(C)C(O)C(C)C(OC(C)=O)C1C (stereo unspecified)
EC50: > 200 µM
IC50: 36.3 µM

CCOc1ccc(/C=N/NC(=O)C(=O)N/N=C/c2ccc(OCC)c(OCC)c2)cc1OCC
EC50: > 200 µM
IC50: > 200 µM

CCCCNC(=O)c1cc(NC(=O)c2ccc(C(=O)Nc3cc(C(=O)NCCCC)cc(C4N=CCN4)c3)cc2)cc(C2=NCCN2)c1 (stereo unspecified)
EC50: 13.2 µM
IC50: > 100 µM

COc1ccc(OC)c(NC(=O)C(=O)CC(=O)c2sc(-n3nc(-c4ccccc4)cc3-c3ccccc3)nc2C)c1
EC50: > 437 µM
IC50: 363 µM

CC(=O)C(=Cc1cccc(F)c1)C(C)=O
EC50: > 126 µM
IC50: 64.6 µM

O=c1ccnc(Nc2ccc[nH]c2=S)[nH]1
EC50: > 589 µM
IC50: 282 µM

CCC[CH2][Sn]([CH2]CCC)([O]C(=O)CN)[O]C(=O)CN
EC50: > 33.9 µM
IC50: 2.45 µM

O=S1(=O)c2ccccc2N2CCCc3cc(Cl)cc1c32
EC50: > 200 µM
IC50: > 200 µM

CCCCCCCCC(O)C(O)CCCCCCCC(=O)O (stereo unspecified)
EC50: > 200 µM
IC50: 53.7 µM

CC1(C)CNC[C@](C)(OCc2ccccc2)C(=O)[N-]C(C)(C)CNC[C@@](C)(OCc2ccccc2)C(=O)[N-]1.[Ni+2]
EC50: > 200 µM
IC50: 151 µM

Cc1cn([C@H]2[C@@H](CO)C[C@H]2O)c(=O)[nH]c1=O
EC50: > 200 µM
IC50: > 200 µM

CC[N+](C)(CC)CCSC1=Nc2ccccc2N=C(c2ccc(Sc3ccccc3)cc2)C1
EC50: > 200 µM
IC50: 6.76 µM

CCCCCC(=O)Nc1nc[nH]c1C(N)=O
EC50: > 200 µM
IC50: > 200 µM

NC(CS/C=C\C(=O)O)C(=O)O (stereo unspecified)
EC50: > 27.5 µM
IC50: > 27.5 µM

Cc1cc(Cl)ccc1NC(=O)CC1SC(=Nc2ccccc2Cl)NC1=O (stereo unspecified)
EC50: > 89.1 µM
IC50: 43.7 µM

CCOC(=O)C(CC/C=C\c1ccccc1)N1CCC[C@H]1C(=O)OC (stereo partly specified)
outcome: inactive

Cn1ccnc1.[O-][Cl+3]([O-])([O-])[O-].[Pt+2].c1ccc(-c2cccc(-c3ccccn3)n2)nc1
EC50: > 200 µM
IC50: 13.5 µM

Cn1cnnc1Sc1c([N+](=O)[O-])ncn1C
EC50: > 1050 µM
IC50: 9.12 µM

N#C[C@H]1Nc2ccccc2[C@@H](O)C1O (stereo partly specified)
EC50: > 1320 µM
IC50: > 1320 µM

CC1=C(C(=O)O)CCC2(C)C3=C(CCC12)C(=O)C(C(C)C)=CC3=O (stereo unspecified)
EC50: > 200 µM
IC50: 12.3 µM

CCOC(=O)/C(=C/n1c(=S)[nH]c2ccc([N+](=O)[O-])cc21)C(=O)c1ccccc1
EC50: > 200 µM
IC50: 141 µM

CCCCNC1CCC2(SCCS2)c2[nH]c3ccccc3c21 (stereo unspecified)
EC50: > 200 µM
IC50: 1.26 µM

Cc1cc(Cc2cc(C)c(O)c(Br)c2)cc(Br)c1O
EC50: > 200 µM
IC50: 1.58 µM

CC(C)(C)[Si](C)(C)OC[C@H]1O[C@@H](n2ccc(=O)[nH]c2=O)[C@H](O[Si](C)(C)C(C)(C)C)[C@]1(O)[C@H](Cl)C(N)=O
EC50: > 200 µM
IC50: 3.72 µM

CC(=O)Oc1c2occc2cc2ccc(=O)oc12
EC50: > 72.4 µM
IC50: > 72.4 µM

COC(=O)C1CCC(=O)N1CN(C(C)=O)c1ccccc1 (stereo unspecified)
EC50: > 200 µM
IC50: > 200 µM

O=c1[nH]c(=O)n(C2CC(O)C(COP(=O)(On3nnc4ccccc43)N3CCCCC3)O2)cc1F (stereo unspecified)
EC50: > 200 µM
IC50: 0.0631 µM

Cc1cc(-c2ccco2)oc(=O)c1NC(=O)c1cnccn1
EC50: > 200 µM
IC50: > 200 µM

— PubChem BioAssay AID179 (DTP/NCI, 2004)
